The numbers were not newly measured in patent publication US6967218B2, “Pravastatin pharmaceutical formulations and methods of their use” (Biovail Laboratories, Inc., priority 2002, dated 2005), which cites them from elsewhere.

For series [1] the following is noted: intravenous, healthy volunteers.
The conditions of series [2]: in vivo.
For series [3] the following is noted: Schalke et al, 1992.

In the case of `CC[C@H](C)C(=O)O[C@H]1C[C@H](O)C=C2C=C[C@H](C)[C@H](CC[C@@H](O)C[C@@H](O)CC(=O)O)[C@H]21` [pravastatin, Pravastatin], for the setting “PM vs AM dose”, the “decrease of systemic bioavailability after bedtime (PM) dose compared to morning (AM) dose” value was 60%. Besides, where the note is “oral, man”, the absolute bioavailability was 17%. In addition, for the setting “radiolabeled oral dose”, the “fraction of radiolabeled oral dose excreted in feces” value was 70% and the “fraction of radiolabeled oral dose excreted in urine” value is given as “Approximately 20%”. For the same compound, in series [1], the “share of total body clearance by non-renal routes (biliary excretion and biotransformation)” value was 53%; the “share of total body clearance via renal excretion” value was “approximately 47%”. The “first-pass extraction ratio in the liver” value in series [2] was 0.66. The “adverse effect observed in treated patients” value in series [3] is given as “Severe myopathy”.
